Assay results reported in article PMC8041284, “Tunable Methacrylamides for Covalent Ligand Directed Release Chemistry” (Journal of the American Chemical Society, 2021).
Like-named read-outs stand apart in the source and are kept apart here.

Target: BTK (Homo sapiens, UniProt Q06187)
Assay: biochemical
[1] = read-out: BTK inhibition (%), 0.75 uM BTK, […] probe 3l, 15 min preincubation

Chain of BTK (Q06187 402-655 limits assumed): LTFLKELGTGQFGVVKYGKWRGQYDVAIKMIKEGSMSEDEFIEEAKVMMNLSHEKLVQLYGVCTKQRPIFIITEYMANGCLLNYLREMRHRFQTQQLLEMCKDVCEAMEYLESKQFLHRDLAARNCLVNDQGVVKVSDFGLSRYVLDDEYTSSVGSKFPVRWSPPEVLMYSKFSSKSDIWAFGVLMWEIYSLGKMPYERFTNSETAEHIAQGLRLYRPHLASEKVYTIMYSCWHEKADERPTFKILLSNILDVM

inhibition at 10 µM [1] | SMILES | inhibition at 10 µM (read-out: BTK inhibition (%))
-20.8% | CO[C@@H]1[C@@H](OC)[C@H](C)[C@@](O)(CC(=O)O)O[C@H]1[C@H](C)[C@H]1O[C@@]2(CC[C@@](C)([C@H]3CC[C@@](C)([C@@H]4O[C@@H]([C@H]5O[C@](C)(O)[C@H](C)C[C@@H]5C)C[C@@H]4O[C@@H]4C[C@H](OC)[C@@H](OC)[C@H](C)O4)O3)O2)C[C@H](O)[C@H]1C [PCM-0216004] | –
0% | Cc1nc(-c2cn3c(n2)-c2ccc(-c4cnn(C(C)(C)C(N)=O)c4)cc2OCC3)n(C(C)C)n1 [PCM-0215518] | –
-16.3% | CCO[C@H]1O[C@@H]2O[C@@]3(C)CC[C@H]4[C@H](C)CC[C@@H]([C@H]1C)[C@@]24OO3 [PCM-0214993] | –
-3.4% | CN1CC(=O)N=C1N [PCM-0090615] | –
57.1% | COc1ccc(-c2nc(-c3cc(C(F)(F)F)cc(C(F)(F)F)c3)n(Cc3ccc(C(N)=O)cc3)c2-c2ccc(OC)cc2)cc1 [PCM-0215748] | –
-3.1% | O=C(Oc1cc(S(=O)(=O)c2ccccc2)ccc1[N+](=O)[O-])c1ccc(Cl)cc1 [PCM-0004196] | –
-7% | CCCCCCNC(=O)n1cc(F)c(=O)[nH]c1=O [PCM-0065487] | –
6.9% | Cc1ccccc1N=Nc1ccc(NC(=O)c2ccnn2C)c(C)c1 [PCM-0215441] | –
-8.6% | CCN(CCCc1ccccc1)CCCc1ccccc1 [PCM-0085793] | –
17.9% | CC(C)Oc1ccc2c(=O)c(-c3ccccc3)coc2c1 [PCM-0094837] | –
– | C/C=C(\C)C(=O)N[C@@H](c1ccccc1)[C@@H](O)C(=O)O[C@H]1C[C@@]2(O)[C@@H](OC(=O)c3ccccc3)[C@@H]3[C@]4(OC(C)=O)CO[C@@H]4C[C@H](O)[C@@]3(C)C(=O)[C@H](OC(C)=O)C(=C1C)C2(C)C [PCM-0214711] | -8.6%
37.9% | Nc1ncnc2n[nH]c(Nc3ccc(F)cc3)c12 [PCM-0095728] | –
111% | Cn1cc(-c2[nH]c3cc(NC(=O)[C@H](N)C4CCCCC4)cc4c3c2C=NNC4=O)cn1 [PCM-0095372] | –
-7.6% | CCc1cnn2c(NCc3ccc[n+]([O-])c3)cc(N3CCCC[C@H]3CCO)nc12 [PCM-0095529] | –
1.4% | COC(=O)/C=C/C(=O)OC [PCM-0090553] | –
-0.8% | O=c1c(-c2ccc(O)cc2)coc2c([C@@H]3O[C@H](CO)[C@@H](O)[C@H](O)[C@H]3O)c(O)ccc12 [PCM-0094877] | –
12.4% | CC(C)c1cc(-c2n[nH]c(=O)n2-c2ccc3c(ccn3C)c2)c(O)cc1O [PCM-0094991] | –
-5.1% | CC(C)(C)Cn1c(N)nc2ccc(-c3[nH]c(C(C)(C)C)nc3-c3ccc(F)cc3)nc21 [PCM-0095175] | –
-10% | OB1OCc2cc(F)ccc21 [PCM-0101990] | –
3.1% | CCN=C1N[C@@H]2[C@@H](O)[C@H](O)[C@@H](CO)O[C@@H]2S1 [PCM-0215232] | –
3.9% | O=S(=O)(O)NC1CCCCC1 [PCM-0090618] | –
-16.6% | CO[C@H]1C[C@@H]2CC[C@@H](C)[C@@](O)(O2)C(=O)C(=O)N2CCCC[C@H]2C(=O)O[C@H]([C@H](C)C[C@@H]2CC[C@@H](OP(C)(C)=O)[C@H](OC)C2)CC(=O)[C@H](C)/C=C(\C)[C@@H](O)[C@@H](OC)C(=O)[C@H](C)C[C@H](C)/C=C/C=C/C=C/1C [PCM-0214600] | –
4.6% | OC[C@H]1O[C@H](Oc2ccc(O)cc2)[C@H](O)[C@@H](O)[C@@H]1O [PCM-0215968] | –
10.8% | CC(=O)OCc1ccccc1 [PCM-0216204] | –

inhibition at 10 µM [1] | SMILES | inhibition at 10 µM (read-out: BTK inhibition (%))
18.7% | C/C=C/c1ccc(OC)cc1 [PCM-0090331] | –
1.6% | OCc1ccc(-c2ccc(-c3ccc(CO)s3)o2)s1 [PCM-0095348] | –
23.4% | O=C(O)Cc1cccc(OCCCN(Cc2cccc(C(F)(F)F)c2Cl)CC(c2ccccc2)c2ccccc2)c1 [PCM-0095493] | –
-15.2% | COc1c(C)c2c(c(O)c1C/C=C(\C)CCC(=O)OCCN1CCOCC1)C(=O)OC2 [PCM-0090398] | –
6.9% | O=CCc1ccccc1 [PCM-0216613] | –
20.1% | CN(C)C(=S)NN=C(c1ccccn1)c1ccccn1 [PCM-0215522] | –
3.1% | O=S(=O)(c1ccccc1)c1cnc2c(N3CCNCC3)cccc2c1 [PCM-0095346] | –
33.8% | COc1cc2c(Oc3ccc4[nH]c(C)cc4c3F)ncnc2cc1OCCCN1CCCC1 [PCM-0094913] | –
-2.8% | O=C(Cc1ccc(-c2ccc(OCCN3CCOCC3)cc2)cn1)NCc1ccccc1 [PCM-0095410] | –
40% | C[C@@H]1C[C@H]2[C@@H]3CCC4=CC(=O)C=C[C@]4(C)[C@@]3(Cl)[C@@H](O)C[C@]2(C)[C@@]1(OC(=O)c1ccco1)C(=O)CCl [PCM-0085978] | –
-4.7% | C1CNCCNCCNCCN1 [PCM-0215094] | –
-2.3% | NC(N)=N/N=C/c1c(Cl)cccc1Cl [PCM-0065199] | –
6.9% | CCCc1cc(-c2nc(-c3ccc(C)cc3)cs2)ccn1 [PCM-0215677] | –
13.9% | CC1(C)CC[C@]2(C(=O)O[C@@H]3O[C@H](CO[C@@H]4O[C@H](CO)[C@@H](O)[C@H](O)[C@H]4O)[C@@H](O)[C@H](O)[C@H]3O)CC[C@]3(C)C(=CC[C@@H]4[C@@]5(C)CC[C@H](O[C@@H]6OC[C@H](O)[C@H](O)[C@H]6O)[C@@](C)(CO)[C@@H]5CC[C@]43C)[C@@H]2C1 [PCM-0216172] | –
3.9% | CC1(C)CC[C@]2(C(=O)O)CC[C@]3(C)C(=CC[C@@H]4[C@@]5(C)CC[C@H](O[C@@H]6O[C@H](C(=O)O)[C@@H](O)[C@H](O[C@@H]7OC[C@@H](O)[C@H](O)[C@H]7O)[C@H]6O)C(C)(C)[C@@H]5CC[C@]43C)[C@@H]2C1 [PCM-0216434] | –
-9.3% | C[N+]1(C)C2CCC1CC(OC(=O)C(O)c1ccccc1)C2 (centres unmarked) [PCM-0095577] | –
2.1% | Nc1ccc(-c2cccc(C(=O)Nc3cnc4nc(N5CCOCC5)oc4c3)n2)cn1 [PCM-0215899] | –
37.2% | C=CCn1c(=O)c2cnc(Nc3ccc(N4CCN(C)CC4)cc3)nc2n1-c1cccc(C(C)(C)O)n1 [PCM-0095195] | –
-17.1% | CCOC(=O)n1ccn(C)c1=S [PCM-0086034] | –
4.6% | CS(=O)(=O)n1cc2c(n1)CN([C@H]1CO[C@H](c3cc(F)ccc3F)[C@@H](N)C1)C2 [PCM-0215833] | –
4.1% | OCCOCCN1CCN(C(c2ccccc2)c2ccc(Cl)cc2)CC1 (centres unmarked) [PCM-0085866] | –
59.5% | O=C(O)CCN1C(=O)/C(=C/c2ccc(-c3ccc([N+](=O)[O-])cc3)o2)SC1=S [PCM-0215696] | –
74.1% | O=[N+]([O-])c1ccc(Nc2ccccc2-c2ccccc2)c2nonc12 [PCM-0215806] | –
0.8% | C/C=C(/C)C(=O)O[C@H]1Cc2cc3ccc(=O)oc3cc2OC1(C)C [PCM-0214953] | –

inhibition at 10 µM [1] | SMILES | inhibition at 10 µM (read-out: BTK inhibition (%))
2.3% | COc1ccc(C(=O)O)c(O)c1 [PCM-0215974] | –
9.7% | Nc1ccc(-c2ccc3ncc4ccc(=O)n(-c5cccc(C(F)(F)F)c5)c4c3c2)cn1 [PCM-0095430] | –
-1.6% | COC(=O)C1=CO[C@@H](O[C@@H]2O[C@H](CO)[C@@H](O)[C@H](O)[C@H]2O)[C@@H]2C(CO)=CC[C@H]12 [PCM-0087450] | –
0.8% | CCN1CCCC1CNC(=O)c1cc(S(=O)(=O)CC)c(N)cc1OC (centres unmarked) [PCM-0064775] | –
-24.7% | c1ccc(-c2nn3c(c2-c2ccnc4cc(OCCN5CCOCC5)ccc24)CCC3)nc1 [PCM-0095413] | –
24.8% | CC1(C)CC[C@]2(C(=O)O)[C@H](O)C[C@]3(C)C(=CC[C@@H]4[C@@]5(C)CC[C@H](O)C(C)(C)[C@@H]5CC[C@]43C)[C@@H]2C1 [PCM-0214984] | –
-9% | O=C(CCCCCCC(=O)Nc1ccccc1)NO [PCM-0086223] | –
22.8% | Cn1cc(/C=C2\C(=O)Nc3cccnc32)c2ccccc21 [PCM-0095342] | –
73.1% | O=C(Nc1cccc(Cl)c1)Nc1ncc(CCNc2ncnc3ccsc23)s1 [PCM-0094983] | –
-7.8% | CC(C)[C@H](N)C(=O)OCCOCn1cnc2c(=O)[nH]c(N)nc21 [PCM-0086005] | –
-3.1% | COc1ccc(C[C@H](N)C(=O)N[C@H]2[C@@H](O)[C@H](n3cnc4c(N(C)C)ncnc43)O[C@@H]2CO)cc1 [PCM-0215332] | –
1.6% | CC1CCc2c(N3CCC(O)CC3)c(F)cc3c(=O)c(C(=O)O)cn1c23 (centres unmarked) [PCM-0086338] | –
-24.9% | CCCN1CCCC[C@H]1C(=O)Nc1c(C)cccc1C [PCM-0095613] | –
-17.8% | O=C(CCCCc1ccc2c(c1)OCO2)N1CCCCC1 [PCM-0216131] | –
14.5% | Nc1cccc2c1CN(C1CCC(=O)NC1=O)C2=O (centres unmarked) [PCM-0094938] | –
19.3% | CC1=C(C(=O)Nc2ccc3[nH]ncc3c2)C(c2ccc(F)cc2)NC(=O)N1 (centres unmarked) [PCM-0215810] | –
7% | C/C(=C\C(=O)OCCCCCCCCC(=O)O)C[C@@H]1OC[C@H](C[C@@H]2O[C@H]2[C@@H](C)[C@H](C)O)[C@@H](O)[C@H]1O [PCM-0101899] | –
17.2% | Cc1cccc(Nc2ccccc2C(=O)O)c1C [PCM-0085867] | –
15.4% | Cc1ncc(Cl)cc1NCc1ccc(C(=O)N[C@@H](CC2CCCC2)C(=O)NC2CC2)s1 [PCM-0215421] | –
52.5% | C#CC[C@H](c1nc2cc(Cl)ccc2c(=O)n1Nc1ccccc1)N(CCCN)C(=O)c1cccc(Cl)c1F [PCM-0095802] | –
47.9% | O=C(CNc1ccc2ccccc2c1)N/N=C/c1cc(Br)c(O)c(Br)c1O [PCM-0215592] | –
-2.1% | O=C1Cc2c([nH]c3ccc(Br)cc23)-c2ncccc2N1 [PCM-0215289] | –
-14.8% | CCc1cc(C(N)=S)ccn1 [PCM-0086071] | –

SMILES | inhibition at 10 µM [1] | inhibition at 10 µM (read-out: BTK inhibition (%))
CC(C)OC(=O)[C@H](C)N[P@](=O)(OC[C@H]1O[C@@H](n2ccc(=O)[nH]c2=O)[C@](C)(F)[C@@H]1O)Oc1ccccc1 [PCM-0214785] | 13.2% | –
CC(C)=CCC[C@](C)(O)[C@H]1CC[C@]2(C)[C@@H]1[C@H](O)C[C@@H]1[C@@]3(C)CC[C@H](O)C(C)(C)[C@@H]3[C@@H](O)C[C@]12C [PCM-0214875] | 17.9% | –
COc1ccc2c3c1O[C@H]1C[C@@H](O)C=C[C@@]31CCN(C)C2 [PCM-0086015] | -17.1% | –
